Reference: US9066938B2, “GPBP-1 inhibition and its therapeutic use” (Fibrostatin S.L., priority 2012, dated 2015)
Where a name gives a salt, the structure may show the parent alone.

Tests used:
[1] = test system: cell cycle-related genes in A549 cells; experiment: Cell Cycle RT2 Profiler PCR Array in A549 cells; assay type: cell-based, human; conditions: doxorubicin 1 μM or T12 50 μM, 24 h
Experimental: FIG. 6. T12 and doxorubicin activate cell cycle-related genes in a similar fashion. A549 cells were treated doxorubicin (1 μM) or T12 (50 μM) for 24 h. Total RNA was purified, reverse-transcribed and subjected to Cell Cycle RT^2 Profiler PCR Array. A, shown are logarithmic scatter plots of relative mRNA levels of treated vs untreated cells. […] B, shown are bar plots of the relative expression (RQ) of the over-expressed genes indicated in A. Results are shown in fold expression respect to untreated cells.
RNA was purified from cells using the Ilustra RNAspin Mini (GE Healthcare) and the cDNA was prepared using RT^2 First Strand™ cDNA kit (Qiagen). The cDNA from treated or untreated cells was used to screen the Cell Cycle RT^2 Profiler™ PCR Array for human (PAHS-020Z, Qiagen), following manufacturer's procedures (Qiagen). qPCR was performed using RT^2 SYBR® Green ROX™ qPCR Mastermix (Qiagen) and the StepOnePlus™ Real-Time PCR System (Applied Biosystems). qPCR data were analyzed using manufacturer software.

[2] = test system: GPBP expression in A549 cells; experiment: GPBP expression in A549 cells after treatment; assay type: cell-based, human
Experimental: A549 cells treated for 4 weeks with 1 μM doxorubicin (A549-DR). Fifty μg of cellular lysates of A549 and A549-DR cells were analyzed by Western blot to assess the levels of GPBP using GPBP-specific mAb N27. Tubulin was stained with specific antibodies and used as loading control.
This was assessed by selecting A549 cells with doxorubicin and analyzed GPBP expression by Western blot (FIG. 15).

[3] = target: T1, recombinant human GPBP-1 produced in insect cells (Homo sapiens, UniProt Q9Y5P4); experiment: Affinity constants for GPBP-1 by the Benesi-Hildebrand method; assay type: binding
T1 construct: FLAG (N); made in house; host or cells: SF9 insect cells (baculovirus, pFastBac1)
T1 sequence (Q9Y5P4 1-624): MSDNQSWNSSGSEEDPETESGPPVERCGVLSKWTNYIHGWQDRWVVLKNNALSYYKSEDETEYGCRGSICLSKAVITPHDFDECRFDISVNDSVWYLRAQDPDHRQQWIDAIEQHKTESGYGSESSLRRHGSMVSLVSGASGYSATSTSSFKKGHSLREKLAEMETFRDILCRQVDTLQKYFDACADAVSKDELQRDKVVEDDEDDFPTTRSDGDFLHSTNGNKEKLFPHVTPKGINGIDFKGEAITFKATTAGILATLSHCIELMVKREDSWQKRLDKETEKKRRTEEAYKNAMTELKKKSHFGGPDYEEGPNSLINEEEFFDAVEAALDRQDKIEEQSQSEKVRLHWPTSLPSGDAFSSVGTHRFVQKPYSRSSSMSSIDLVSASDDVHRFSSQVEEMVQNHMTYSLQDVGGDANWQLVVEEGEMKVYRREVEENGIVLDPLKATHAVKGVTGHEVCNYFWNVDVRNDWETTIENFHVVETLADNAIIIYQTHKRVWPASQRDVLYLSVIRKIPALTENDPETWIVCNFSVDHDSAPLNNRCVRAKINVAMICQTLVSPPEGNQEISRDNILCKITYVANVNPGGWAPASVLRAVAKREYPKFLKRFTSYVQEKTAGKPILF
Experimental: FIG. 1. […] A, to assess the inhibitory activity of T12 and doxorubicin on GPBP-1 kinase activity and their synergism, approximately 200 ng of yeast FLAG-GPBP-1 from two different preparations with low and high specific activities were incubated with [γ-^32P]ATP in the absence (−) or presence (+) of the indicated compounds and concentrations. Mixtures were subjected to Western blot and autoradiographed (^32P). The levels of GPBP were further analyzed using anti-FLAG (WB). B, in the panel is shown affinity constants of the indicated compounds for recombinant human GPBP-1 produced in insect cells calculated by the Benesi-Hildebrand method. Recombinant yeast GPBP-1 was expressed in Pichia pastoris and affinity-purified as previously described (Raya et al. 1999, raya et al. 2000). To express and purify recombinant FLAG-GPBP-1 from SF9 insect cells, the cDNA of FLAG-GPBP-1 was cloned in the baculovirus expression vector pFastBac1. The plasmid was transformed into DH10Bac competent cells and the recombinant baculovirus was produced following manufacturer's recommendations (Bac-to-Bac™ Baculovirus Expression System, Invitrogen, Life Technologies). Baculovirus was used to infect SF9 cells and GPBP-1 in the supernatant of culture media was purified by affinity chromatography using anti-FLAG agarose (Sigma-Aldrich) following manufacturer's recommendations. GPBP-1 phosphorylation assays were performed as previously described (Raya et al. 1999).

human recombinant GPBP-1 = target: T2, human recombinant GPBP-1 (Homo sapiens, UniProt Q9Y5P4); experiment: GPBP-1 in vitro autophosphorylation (kinase) assay with [γ-32P]ATP; assay type: biochemical
T2 construct: made in house; host or cells: Pichia pastoris
T2 sequence (Q9Y5P4 1-624): T1 sequence (Q9Y5P4 1-624)
From the text: To explore the possibility that doxorubicin, an anti-tumor agent targeting topoisomerase II (Pommier et al. 2010), operates through GPBP-1, human recombinant GPBP-1 (Raya et al. 1999) was subjected to in vitro autophosphorylation in the presence or absence of doxorubicin and T12 (FIG. 1A).

A549 xenografts = experiment: Mouse xenograft study with A549 tumors; assay type: in vivo, nude mice; conditions: for tumor growth, single compound: doxorubicin 2.5 mg/kg per week i.p. or T12 20 mg/kg per day in drinking water, three weeks
Experimental: FIG. 11. T12 and doxorubicin are synergistic arresting growth of A549-based tumors. Nude mice bearing A549 xenografts were treated with the indicated compounds as indicated in Methods and Experimental Design. Indicated are the tumor size at the indicated times. […] FIG. 12. T12 and doxorubicin are synergistic necrotizing A549-based tumors. Tumor samples from mice used in FIG. 11 were fixed in formalin, paraffin-embedded, subjected to Masson's trichrome staining and observed by optical microscopy. Necrotic areas are indicated with asterisks. Shown are representative images. FIG. 13. […] Ten-week old nude mice (NMRi-Foxn1^nu/Foxn1^nu) (Janvier) were used for xenograft studies. Three-million A549 cells were suspended in 100 μL of culture medium, mixed with 200 μL Matrigel (BD) and subcutaneously injected on the flank of individual mouse (n=40). Tumor size was periodically measured with a digital caliper and volumes were calculated with the formula […]. […] After three weeks mice were sacrificed, tumor xenografts excised and either fixed with formalin and paraffin-embedded or frozen and RNA extracted. Sections of paraffin-embedded tumor samples were subjected to hematoxylin and eosin and Masson's trichrome standard stainings. Frozen tumor samples were ground with a mortar in liquid nitrogen and total RNA extracted as above indicated.

[4] = 2.5 mg/kg/week doxorubicin and 20 mg/kg/day T12, three weeks

COc1cccc2c1C(=O)c1c(O)c3c(c(O)c1C2=O)C[C@@](O)(C(=O)CO)C[C@@H]3O[C@H]1C[C@H](N)[C@H](O)[C@H](C)O1 [doxorubicin, doxorubicin hydrochloride, reference compound]
expression of CDKN1A (p21), GADD45A, MDM2 and SERTAD1 [1]: up-regulated | GPBP expression in A549 cells in response to treatment [2]: increased GPBP cell expression | affinity / manner of binding to GPBP-1 [3]: irreversible | binding to GPBP-1, fold stronger than T12 (affinity constants) ([3]; relative to T12): ~10^5 fold | inhibition of GPBP-1 autophosphorylation (human recombinant GPBP-1; compound alone): efficiently inhibited | tumor growth, single compound (A549 xenografts): did not impaired tumor growth

COc1ccc(-c2ccc(-c3cccc(C)c3)c(C)c2)c(CCC(=O)O)c1 [T12, 3-[4″-methoxy-3,2′-dimethyl-(1,1′;4′,1″)terphenyl-2″-yl] propionic acid]
expression of CDKN1A (p21), GADD45A, MDM2 and SERTAD1 [1]: up-regulated | GPBP expression in A549 cells in response to treatment [2]: no evidence for increased expression of GPBP | affinity / manner of binding to GPBP-1 [3]: light-moderated affinity | inhibitory activity on GPBP-1 autophosphorylation in combination with doxorubicin (human recombinant GPBP-1; T12 plus doxorubicin): synergistic | matrix metalloproteinase 10 (MMP-10) expression in tumors, combined treatment (A549 xenografts; 2.5 mg/kg/week doxorubicin and 20 mg/kg/day T12, qPCR): lower levels | necrotic areas within the tumors, combined treatment (A549 xenografts; [4]): more extensive | tumor growth, combined administration (A549 xenografts; [4]): tumor arrest | tumor growth, single compound (A549 xenografts): did not impaired tumor growth
